Source: the NIST ThermoML archive (doi:10.1021/je500380x)

Assay: mn = molality of the nth substance listed, in mol/kg
Conditions: 100 kPa, Liquid; for viscosity: Falling or rolling sphere viscometry; for mass density: Vibrating tube method; for electrical conductivity: Alternating current cell with electrodes

CCC(=O)OCCN1CCNCC1 [2-(piperazin-1-yl)ethyl propionate] + CO
Conditions | electrical conductivity [S/m] | mass density [kg/m3] | viscosity [mPa·s]
308.15 K, m1 = 0.05 | – | 780.29 | –
308.15 K, m1 = 0.1001 | – | 783.39 | –
308.15 K, m1 = 0.2006 | – | 789.53 | –
308.15 K, m1 = 0.3003 | – | 795.62 | –
308.15 K, m1 = 0.3995 | – | 801.72 | –
308.15 K, m1 = 0.5005 | – | 807.84 | –
308.15 K, m1 = 0.6006 | – | 814.12 | –
308.15 K, m1 = 0.7007 | – | 820.37 | –
308.15 K, m1 = 0.8007 | – | 826.54 | –
308.15 K, m1 = 0.9008 | – | 832.74 | –
308.15 K, m1 = 1.001 | – | 838.83 | 0.949
308.15 K, m1 = 1.2 | – | 851.28 | 1.098
308.15 K, m1 = 1.401 | – | 864.42 | 1.305
308.15 K, m1 = 1.6 | – | 876.97 | 1.56
308.15 K, m1 = 1.801 | – | 890.31 | 1.895
308.15 K, m1 = 2 | – | 903.56 | 2.346
308.15 K, m1 = 2.203 | – | 917.48 | 2.912
308.15 K, m1 = 2.403 | – | 930.52 | 3.753
308.15 K, m1 = 2.603 | – | 943.48 | 4.841
308.15 K, m1 = 2.803 | – | 956.73 | 6.372
308.15 K, m1 = 3.001 | – | 970.42 | 8.863
313.15 K, m1 = 0.05 | 0.142 | 775.51 | 0.484
313.15 K, m1 = 0.1001 | 0.238 | 778.61 | 0.494
313.15 K, m1 = 0.2006 | 0.384 | 784.77 | 0.522
313.15 K, m1 = 0.3003 | 0.498 | 790.88 | 0.552
313.15 K, m1 = 0.3995 | 0.586 | 797 | 0.585
313.15 K, m1 = 0.5005 | 0.661 | 803.15 | 0.623
313.15 K, m1 = 0.6006 | 0.729 | 809.45 | 0.664
313.15 K, m1 = 0.7007 | 0.779 | 815.73 | 0.706
313.15 K, m1 = 0.8007 | 0.823 | 821.92 | 0.76
313.15 K, m1 = 0.9008 | 0.857 | 828.14 | 0.815
313.15 K, m1 = 1.001 | 0.898 | 834.22 | 0.878
313.15 K, m1 = 1.2 | 0.931 | 846.77 | 1.012
313.15 K, m1 = 1.401 | 0.948 | 859.97 | 1.197
313.15 K, m1 = 1.6 | 0.941 | 872.59 | 1.425
313.15 K, m1 = 1.801 | 0.918 | 885.98 | 1.723
313.15 K, m1 = 2 | 0.873 | 899.28 | 2.12
313.15 K, m1 = 2.203 | 0.82 | 913.27 | 2.614
313.15 K, m1 = 2.403 | 0.751 | 926.52 | 3.343
313.15 K, m1 = 2.603 | 0.674 | 939.34 | 4.274
313.15 K, m1 = 2.803 | 0.599 | 952.7 | 5.571
313.15 K, m1 = 3.001 | – | 966.46 | 7.662
313.15 K, m1 = 3.006 | 0.534 | – | –
318.15 K, m1 = 0.05 | 0.145 | 770.7 | 0.459
318.15 K, m1 = 0.1001 | 0.243 | 773.8 | 0.468
318.15 K, m1 = 0.2006 | 0.395 | 779.98 | 0.493
318.15 K, m1 = 0.3003 | 0.511 | 786.11 | 0.521
318.15 K, m1 = 0.3995 | 0.604 | 792.25 | 0.55
318.15 K, m1 = 0.5005 | 0.685 | 798.42 | 0.584
318.15 K, m1 = 0.6006 | 0.754 | 804.74 | 0.622
318.15 K, m1 = 0.7007 | 0.806 | 811.06 | 0.66
318.15 K, m1 = 0.8007 | 0.855 | 817.27 | 0.708
318.15 K, m1 = 0.9008 | 0.891 | 823.51 | 0.759
318.15 K, m1 = 1.001 | 0.936 | 829.66 | 0.814
318.15 K, m1 = 1.2 | 0.975 | 842.24 | 0.935
318.15 K, m1 = 1.401 | 0.994 | 855.48 | 1.102
318.15 K, m1 = 1.6 | 0.995 | 868.17 | 1.306
318.15 K, m1 = 1.801 | 0.971 | 881.62 | 1.571
318.15 K, m1 = 2 | 0.932 | 894.99 | 1.922
318.15 K, m1 = 2.203 | 0.874 | 909.04 | 2.355
318.15 K, m1 = 2.403 | 0.809 | 922.36 | 2.99
318.15 K, m1 = 2.603 | 0.724 | 935.25 | 3.793
318.15 K, m1 = 2.803 | 0.656 | 948.64 | 4.897
318.15 K, m1 = 3.001 | – | 962.47 | 6.668
318.15 K, m1 = 3.006 | 0.583 | – | –
323.15 K, m1 = 0.05 | 0.148 | 765.85 | 0.437
323.15 K, m1 = 0.1001 | 0.244 | 768.95 | 0.445
323.15 K, m1 = 0.2006 | 0.406 | 775.15 | 0.467
323.15 K, m1 = 0.3003 | 0.529 | 781.29 | 0.492
323.15 K, m1 = 0.3995 | 0.625 | 787.45 | 0.519
323.15 K, m1 = 0.5005 | 0.709 | 793.64 | 0.549
323.15 K, m1 = 0.6006 | 0.782 | 799.99 | 0.583
323.15 K, m1 = 0.7007 | 0.833 | 806.34 | 0.617
323.15 K, m1 = 0.8007 | 0.889 | 812.57 | 0.661
323.15 K, m1 = 0.9008 | 0.927 | 818.85 | 0.707
323.15 K, m1 = 1.001 | 0.976 | 825.02 | 0.757
323.15 K, m1 = 1.2 | 1.017 | 837.66 | 0.866
323.15 K, m1 = 1.401 | 1.042 | 850.96 | 1.016
323.15 K, m1 = 1.6 | 1.045 | 863.7 | 1.199
323.15 K, m1 = 1.801 | 1.032 | 877.22 | 1.436
323.15 K, m1 = 2 | 0.996 | 890.65 | 1.748
323.15 K, m1 = 2.203 | 0.933 | 904.77 | 2.13
323.15 K, m1 = 2.403 | 0.866 | 918.16 | 2.685
323.15 K, m1 = 2.603 | 0.781 | 931.01 | 3.381
323.15 K, m1 = 2.803 | 0.708 | 944.56 | 4.325
323.15 K, m1 = 3.001 | – | 958.45 | 5.906
323.15 K, m1 = 3.006 | 0.636 | – | –
